Laboratory results reported in PMC9295122, “Sialic Acid Derivatives Inhibit SiaT Transporters and Delay Bacterial Growth” (ACS Chemical Biology, 2022).
“Also recorded” adds a separate entry of the source.

Test system: E. coli JW3193 ΔNanT expressing PmSiaT
Assay: Growth of E. coli JW3193 ΔNanT expressing PmSiaT
Type: cell-based, Escherichia coli
Conditions: for effect on growth on sialic acid: 0.5 mM sialic acid + 1 mM inhibitor; for growth with inhibitor as only carbon source: 1 mM inhibitor
Source text: To further investigate bacterial growth inhibition, we employed a model system of E. coli JW3193 ΔNanT expressing the SaSiaT and PmSiaT transporters. We designed these experiments to test if compounds 3e and 3f could inhibit the Neu5Ac transport in vivo because, without an active sialic acid transporter, E. coli JW3193 ΔNanT cannot grow on Neu5Ac.[16],[21]
For the bacterial growth experiments, the pJ422-01 plasmid containing the relevant SiaT or NanT gene was transformed into the E. coli JW3193 ΔnanT strain.[21] Throughout the experiments, strains containing the pJ422-01 plasmid were grown in media supplemented with 25 μg/mL Zeocin. E. coli BW25113, empty E. coli JW3193, and E. coli JW3193 with pJ422-01 containing the NanT gene were also used as controls. Strains were initially plated out from glycerol stocks before a single colony was picked and grown overnight in low salt LB media at 37 °C, with shaking at 180 rpm. Overnight cultures were diluted to an OD600 of 0.05 using low salt LB [supplemented with 1 mM isopropyl β-D-1-thiogalactopyranoside (IPTG)], before they were incubated at 37 °C, with shaking at 250 rpm, until they reached an OD600 of 0.3. At this point, 5 mL of each culture was centrifuged at 6000g for 5 min at 25 °C. The supernatants were removed and the cell pellets were resuspended in 5 mL of M9 MM without glucose prior to being centrifuged again at 6000g for 5 min at 25 °C. This wash step was repeated twice more before cells were resuspended to an OD600 of 0.5 in M9 MM without glucose. A Corning Costar Flat Bottom 96 Well TC-treated microplate was set up with 180 μL of M9 MM containing 1 mM IPTG (for the pJ422-01 strains) and either 5 mM glucose, 0.5 mM sialic acid, and 0.5 mM sialic acid with 1 mM of either inhibitor, or 1 mM of either inhibitor as a carbon source. To the 180 μL of media, 20 μL of each culture were added to the plate (OD600 of 0.05), before it was loaded into a FLUOstar Omega microplate reader (BMG Labtech). Growth was recorded at 600 nm every 10 min at 37 °C, with shaking at 300 rpm. Growth curves represent the mean and standard deviation of measurement from triplicate measurements (glucose/no carbon source in duplicate).
Fig. S5. Growth of E. coli JW3193 ΔNanT expressing the SaSiaT and PmSiaT transporters from a plasmid and using various carbon sources and in the presence or absence of inhibitors, 3e and 3f. […]
(B) PmSiaT is again expressed from a plasmid in the E. coli strain JW3193 ΔNanT, where the native sialic acid transporter (NanT) is deleted. The strain grows normally when in media with glucose (black line). There is no growth in the absence of any carbon source (grey line). In the presence of sialic acid at 0.5 mM the strain grows to an OD of ~0.5 (red line), showing that the transporter is functional. […]
substrates. […]

SMILES	effect on growth on sialic acid	growth with inhibitor as only carbon source
CC(=O)NC1C(OCc2cc(F)cc(F)c2)CC(O)(C(=O)O)OC1C(O)C(O)CO (stereo not shown) [Compound 3e]	no effect on growth; also recorded: neither inhibitor seemed to alter bacterial growth	no growth
CC(=O)NC1C(OCc2cc(Br)cc(Br)c2)CC(O)(C(=O)O)OC1C(O)C(O)CO (stereo not shown) [Compound 3f]	no effect on growth; also recorded: neither inhibitor seemed to alter bacterial growth	no growth
